Measured values: patent US8158623B2, “Heptacyclic compounds and the pharmaceutical uses thereof for preventing and treating diabetes and metabolic syndrome” (Shanghai Institute of Materia Medica Chinese Academy of …, priority 2007, dated 2012)

Experiments:
[1] = test system: AMP-Activated Protein Kinase (AMPK); assay: Phosphorylation of AMPK in HepG2 cell (Western blot); assay type: cell-based, Human; conditions: HepG2, 50 uM, 5 minutes, P<0.01 or P<0.05
Procedure: (§1) Human hepatoma carcinoma cell strain (HepG2, purchased from the cell bank of Shanghai Institute of Cell Biology of Chinese Academy) was used. The Human hepatoma carcinoma cells were passaged by 0.1% pancreatin/0.02% EDTA digestion, and cultured in a incubator at 37° C. using MEM culture medium containing 10% FBS, under 5% CO2/95%.
(§2) HepG2 cells were cultured in 6-well plates for 48 hours until 70%-80% confluence. Serum starvation was started by changing medium with MEM containing 0.5% BSA. After starvation for 6 hours, cells were treated with the compounds (final concentration of 50 uM, containing 0.25% DMSO) for 5 minutes. The culture medium was discarded, and cells were harvested and washed for twice with pre-cooled PBS. The washing liquid was discarded, and any residual PBS was blotted dry. DMSO without heptacyclic compounds was used as control.
(§3) Extraction of total cellular protein: 150 μl/well homogenizing buffer (137 mM NaCl, 2.7 mM KCl, 1 mM MgCl2, 0.5 mM Na3VO4, 1% Triton X-100, 10% Glycerol, 20 mM Tris-HCl pH 7.8, 1 ug/ml Leupeptin, 0.2 mM PMSF, 10 mM NaF, 1 ug/ml Aprotinin, 1 mM EDTA, 1 mM DTT, 5 mM Sodium pyrophosphate, 1 mM Benzamidine) was added. Cells were collected into a 1.5 ml centrifuge tube using cell scraper. Cells were homogenized using sonicator (5 W of power) for 2 times (3 seconds per time), and shaken on a shaker for 1 hour. Supernatant (i.e., total cellular protein) was collected by centrifuging at 14000 rpm for 15 min at 4° C., and stored at −70° C. until use. After the protein concentration was determined by Bradford method, the supernatant was formulated as the loading sample with final concentration of 0.6 mg/ml. The whole preparation process was performed at 4° C.
(§4) Protein Electrophoresis: After being treated at 95° C. for 5 min, the loading sample was loaded (15 μg protein/lane). The protein was separated on 7.5% SDS-acrylamide gel for 1-2 hours under the voltage of 80-120 V.
(§5) Electrotransferring the protein and blocking the membrane: After electrophoresis was finished, the protein was transferred to PVDF membrane using semi-dry transferring slot based on 0.8 mA/cm^2 membrane area under the electric current of 80 mA for 2 hours. After that, the membrane was shaken for 2 hours with 7.5% skim milk/TTBS to block the membrane.
(§6) Antigen-antibody reaction: After the blocking process was finished, the membrane was incubated with primary antibody (antibody against phosphorylated ACC (P-ACC) and antibody against phosphorylated AMPK (P-AMPK), all purchased from Cell signaling (USA), with the working concentration of 1:1000) overnight at 4° C. The membrane was removed, and the primary antibody was recovered. The membrane was washed 5 times, each for 10 min in TTBS. The membrane was shaken for 2 hours with the secondary antibody (horseradish peroxidase-conjugated goat-anti-rabbit IgG antibody, purchased from Bio-rad (USA), with the working concentration of 1:5000) at room temperature. The secondary antibody was discarded. The membrane was washed 5 times, each for 10 min in TTBS in order to remove the unbound secondary antibody.
(§7) ECL exposure and development: Luminescent agents, ECL 1, 2, were mixed homogeneously, and incubated with the membrane for 3-5 min. The membrane was removed, wrapped in preservative film, and transferred into dark room for exposure. After exposure with X-film, the film was developed, washed, recorded and conserved.
(§8) Semi-quantitative analysis was performed through optical density scan using computer image analysis system. Grey level of the protein expression was calculated. The target grey level was divided by the grey level of internal standard, and a histogram was plotted, taking the normal group as 1 unit.

[2] = test system: Acetyl CoA Carboxylase (ACC); assay: Phosphorylation of ACC in HepG2 cell (Western blot); assay type: cell-based, Human; conditions: HepG2, 50 uM, 5 minutes, P<0.01 or P<0.05
Procedure: as §1, §2, §3, §4, §5, §6, §7, §8

3T3-L1 adipocytes = assay: Glucose uptake in 3T3-L1 adipocytes (3H-labelled 2-deoxyglucose); assay type: cell-based; conditions: for Glucose uptake, Mean, Compound + Insulin Group (Control Group = 1.000): with insulin, relative to control without insulin; for fold induction at 10 µM: Mus musculus, 3T3-L1, 2 h incubation, read-out: Glucose uptake, Mean, Compound Group (Control Group = 1.000)
Procedure: The effect of the compounds on baseline or insulin-stimulated glucose uptake was evaluated, using the model of glucose uptake in 3T3-L1 adipocytes.
Adipose tissue is the target of glucose metabolism in vivo. The sensitivity for insulin and availability of glucose in adipose tissues are tightly associated with the insulin resistance. The transportation of glucose into adipocytes is a rate-limiting step for the glucose metabolism, and also an important indicator for evaluating the sensitivity for insulin in adipose tissue. 3T3-L1 is a kind of pre-adipocyte, and can become adipocyte after differentiated completely. Therefore, 3T3-L1 is a desirable model for the glucose transport.
Pre-adipocyte, 3T3-L1 was induced to differentiate under certain conditions. After 3T3-L1 differentiated into adipocytes, the compounds of interest with different concentrations and DMSO (used as control) can be added and incubated with the adipocytes for different periods, then the glucose uptake could be determined. For evaluating the ability for a compound to stimulate glucose uptake, the baseline and insulin-induced glucose uptake were determined, and the increase in baseline and insulin-induced glucose uptake upon treatment of the compounds as compared with control group (with 0.1% DMSO) is calculated, based on the ^3H-labelled 2-deoxyglucose inside the cells.
3T3-L1 cells purchased from Karolinska Institute (Sweden) were cultured in DMEM medium containing 10% fetal calf serum at 37° C., under 5% CO2. The cells were passaged every 3-4 days. The cells were inoculated into 12-well plate. Upon confluence, culture medium containing 0.5 mM 3-isobutyl-1-methylxanthine, 0.25 μM dexamethasone and 5 μg/ml insulin was added and cultured for 3 days. Then, the culture medium was replaced by a medium containing 5 μg/ml insulin and further cultured for 3 days. The insulin was removed, and the cells had differentiated completely into mature adipocytes after 2 days which could be used to determine the glucose uptake.
23 compounds chosen by the inventors were added into the culture medium of adipocytes in a dose of 10 μM. After incubation for 2 h, the effect of the compounds on glucose uptake in 3T3-L1 cells was observed. Culture medium without compounds was used as negative control. The control group only supplemented with insulin and the experiment group supplemented with compounds plus insulin were also employed to observe the effect of the compounds on glucose uptake.

[3] = baseline (without insulin), relative to control

| Compound | Level of phosphorylation for AMPK protein versus DMSO control [1] | Level of phosphorylation for ACC protein versus DMSO control [2] | Glucose uptake, Mean, Compound + Insulin Group (Control Group = 1.000) (3T3-L1 adipocytes; 10 μM, 2 h incubation) | fold induction at 10 µM (3T3-L1 adipocytes; [3]) | Glucose uptake, Mean, Compound Group (Control Group = 1.000) (3T3-L1 adipocytes; 10 μM, 2 h incubation, baseline (without insulin), relative to control) |
| --- | --- | --- | --- | --- | --- |
| CCCOC(=O)c1cc(OC)c(C)c2c1Oc1c(CNc3ccc(S(N)(=O)=O)cc3)c(O)cc(C)c1C(=O)O2 [AA5, 3-Hydroxy-8-methoxy-1,9-dimethyl-11-oxo-4-[(4-sulfamoyl-phenylamino)-methyl]-11H-dibenzo[b,e][1,4]dioxepine-6-carboxylic acid propyl ester] | increased significantly | – | – | – | – |
| CCCOC(=O)c1cc(OC)c(C)c2c1Oc1c(CNCCN3CCOCC3)c(O)cc(C)c1C(=O)O2 [AA6, 3-Hydroxy-8-methoxy-1,9-dimethyl-4-[(2-morpholin-4-yl-ethylamino)-methyl]-11-oxo-11H-dibenzo[b,e][1,4]dioxepine-6-carboxylic acid propyl ester] | increased significantly | improved significantly | – | – | – |
| COc1ccc2c(c1)NC(=O)c1cc(Cl)c(O)cc1N2 [BT5, 2-Chloro-3-hydroxy-8-methoxy-5,10-dihydro-dibenzo[b,e][1,4]diazepin-11-one] | – | improved significantly | 1.728 | 1.23 | – |
| CCNC(=O)c1cc(OC)c(C)c2c1Oc1c(C=O)c(O)cc(C)c1C(=O)O2 [AB4, 4-Formyl-3-hydroxy-8-methoxy-1,9-dimethyl-11-oxo-11H-dibenzo[b,e][1,4]dioxepine-6-carboxylic acid ethylamide] | – | – | 1.837 | 1.11 | – |
| COc1cc(C(=O)O)c2c(c1C)OC(=O)c1c(C)cc(O)c(CNC(C)(C)C)c1O2 [Compound D3, 4-(tert-Butylamino-methyl)-3-hydroxy-8-methoxy-1,9-dimethyl-11-oxo-11H-dibenzo[b,e][1,4]dioxepine-6-carboxylic acid] | – | – | 3.001 | 1.12 | – |
| COc1cc(C(=O)O)c2c(c1C)OC(=O)c1c(C)cc(O)c(CN3CCN(Cc4ccccc4)CC3)c1O2 [Compound D4, 4-(4-Benzyl-piperazin-1-ylmethyl)-3-hydroxy-8-methoxy-1,9-dimethyl-11-oxo-11H-dibenzo[b,e][1,4]dioxepine-6-carboxylic acid] | – | – | 3.717 | 1.19 | – |
| COC(=O)c1cc(OC)c(C)c2c1Oc1c(C=O)c(O)cc(C)c1C(=O)O2 [Compound A0, 4-Formyl-3-hydroxy-8-methoxy-1,9-dimethyl-11-oxo-11H-dibenzo[b,e][1,4]dioxepine-6-carboxylic acid methyl ester] | – | improved significantly | 2.710 | 1.33 | – |
| COc1cc(C(=O)O)c2c(c1C)OC(=O)c1c(C)cc(O)c(CN3CCNCC3)c1O2 [Compound D1, 3-Hydroxy-8-methoxy-1,9-dimethyl-11-oxo-4-(piperazin-1-ylmethyl)-11H-dibenzo[b,e][1,4]dioxepine-6-carboxylic acid] | increased significantly | – | 3.673 | 1.28 | – |
| COc1cc(C(=O)Nc2ccc(S(N)(=O)=O)cc2)c2c(c1C)OC(=O)c1c(C)cc(O)c(C=Nc3ccc(S(N)(=O)=O)cc3)c1O2 [AB9, 3-Hydroxy-8-methoxy-1,9-dimethyl-11-oxo-4-[(4-sulfamoylphenyl)-iminomethyl]-11H-dibenzo[b,e][1,4]dioxepine-6-[carboxy-(4-sulfamoyl)phenylamide]] | – | – | 1.555 | – | 1.150 |
| CNC(=O)c1cc(OC)c(C)c2c1Oc1c(C=O)c(O)cc(C)c1C(=O)O2 [AB2, 4-Formyl-3-hydroxy-8-methoxy-1,9-dimethyl-11-oxo-11H-dibenzo[b,e][1,4]dioxepine-6-carboxylic acid methylamide] | – | – | 1.639 | 1.18 | – |
| Cc1cc2c(c(C(=O)O)c1)Nc1ncccc1C(=O)N2 [BT7, 8-Methyl-5-oxo-6,11-dihydro-5H-benzo[b]pyrido[2,3-e][1,4]diazepine-10-carboxylic acid] | increased significantly | improved significantly | – | – | – |
| COc1cnc2c(c1)NC(=O)c1ccc(O)c(C=O)c1N2 [BU0, 9-Hydroxy-3-methoxy-6-oxo-6,11-dihydro-5H-benzo[e]pyrido[3,2-b][1,4]diazepine-10-carbaldehyde] | increased significantly | – | 2.147 | 1.43 | – |
| O=C1Oc2ccccc2Oc2ccccc21 [AA0, Dibenzo[b,e][1,4]dioxepin-11-one] | – | – | 2.130 | 1.12 | – |
| COc1cc(C(=O)O)c2c(c1C)OC(=O)c1c(C)cc(O)c(CNc3ccc(F)cc3)c1O2 [AA7, 4-[(4-Fluoro-phenylamino)-methyl]-3-hydroxy-8-methoxy-1,9-dimethyl-11-oxo-11H-dibenzo[b,e][1,4]dioxepine-6-carboxylic acid] | – | improved significantly | 1.786 | 1.13 | – |
| COc1cc(C(=O)O)c2c(c1C)OC(=O)c1c(C)cc(O)c(CNc3ccc(NC(C)=O)cc3)c1O2 [Compound D8, 4-[(4-Acetylamino-phenylamino)-methyl]-3-hydroxy-8-methoxy-1,9-dimethyl-11-oxo-11H-dibenzo[b,e][1,4]dioxepine-6-carboxylic acid] | – | improved significantly | 3.877 | 1.21 | – |
| CCCCOC(=O)c1cc(OC)c(C)c2c1Oc1c(C=O)c(O)cc(C)c1C(=O)O2 [Compound A6, 4-Formyl-3-hydroxy-8-methoxy-1,9-dimethyl-11-oxo-11H-dibenzo[b,e][1,4]dioxepine-6-carboxylic acid butyl ester] | significant up-regulation | improved significantly | – | – | – |
